The supplement of paper PMC11451515

Tested on: P12-Ichikawa
Experiment: cell viability relative to DMSO control; higher = less cytotoxic
Settings: 48 h
Outline: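 Viability was expressed as a per-plate percentage of DMSO wells, with cell-free wells as background. Leukemia cells (NOMO1 or SEM at 500 cells/well, P12-Ichikawa at 1000 cells/well) were adapted for at least four passages in each medium and seeded in 1536-well plates (5 μl). Library compounds in DMSO were pin-dosed over an 11-point threefold series from 47 μM to 0.79 nM, and CellTiter-Glo One luminescence was read after 48 h at 37°C.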

[1] = HPLM + 10% dialyzed FBS, 0.000781 µM
[2] = HPLM + 10% dialyzed FBS, 0.00234 µM
[3] = HPLM + 10% dialyzed FBS, 0.00702 µM
[4] = HPLM + 10% dialyzed FBS, 0.0211 µM
[5] = HPLM + 10% dialyzed FBS, 0.0632 µM
[6] = HPLM + 10% dialyzed FBS, 0.19 µM
[7] = HPLM + 10% dialyzed FBS, 0.569 µM
[8] = HPLM + 10% dialyzed FBS, 1.71 µM
[9] = HPLM + 10% dialyzed FBS, 5.12 µM
[10] = HPLM + 10% dialyzed FBS, 15.4 µM
[11] = HPLM + 10% dialyzed FBS, 46.1 µM
[12] = RPMI 5 mM glucose + 10% FBS, 0.000781 µM
[13] = RPMI 5 mM glucose + 10% FBS, 0.00234 µM
[14] = RPMI 5 mM glucose + 10% FBS, 0.00702 µM
[15] = RPMI 5 mM glucose + 10% FBS, 0.0211 µM
[16] = RPMI 5 mM glucose + 10% FBS, 0.0632 µM
[17] = RPMI 5 mM glucose + 10% FBS, 0.19 µM
[18] = RPMI 5 mM glucose + 10% FBS, 0.569 µM
[19] = RPMI 5 mM glucose + 10% FBS, 1.71 µM
[20] = RPMI 5 mM glucose + 10% FBS, 5.12 µM
[21] = RPMI 5 mM glucose + 10% FBS, 15.4 µM
[22] = RPMI 5 mM glucose + 10% FBS, 46.1 µM
[23] = RPMI 5 mM glucose + 10% dialyzed FBS, 0.000781 µM
[24] = RPMI 5 mM glucose + 10% dialyzed FBS, 0.00234 µM
[25] = RPMI 5 mM glucose + 10% dialyzed FBS, 0.00702 µM
[26] = RPMI 5 mM glucose + 10% dialyzed FBS, 0.0211 µM
[27] = RPMI 5 mM glucose + 10% dialyzed FBS, 0.0632 µM
[28] = RPMI 5 mM glucose + 10% dialyzed FBS, 0.19 µM
[29] = RPMI 5 mM glucose + 10% dialyzed FBS, 0.569 µM
[30] = RPMI 5 mM glucose + 10% dialyzed FBS, 1.71 µM
[31] = RPMI 5 mM glucose + 10% dialyzed FBS, 5.12 µM
[32] = RPMI 5 mM glucose + 10% dialyzed FBS, 15.4 µM
[33] = RPMI 5 mM glucose + 10% dialyzed FBS, 46.1 µM

| Structure (SMILES) | cell viability [1] [%] | cell viability [2] [%] | cell viability [3] [%] | cell viability [4] [%] | cell viability [5] [%] | cell viability [6] [%] | cell viability [7] [%] | cell viability [8] [%] | cell viability [9] [%] | cell viability [10] [%] | cell viability [11] [%] | cell viability [12] [%] | cell viability [13] [%] | cell viability [14] [%] | cell viability [15] [%] | cell viability [16] [%] | cell viability [17] [%] | cell viability [18] [%] | cell viability [19] [%] | cell viability [20] [%] | cell viability [21] [%] | cell viability [22] [%] | cell viability [23] [%] | cell viability [24] [%] | cell viability [25] [%] | cell viability [26] [%] | cell viability [27] [%] | cell viability [28] [%] | cell viability [29] [%] | cell viability [30] [%] | cell viability [31] [%] | cell viability [32] [%] | cell viability [33] [%] |
| --- | --- | --- | --- | --- | --- | --- | --- | --- | --- | --- | --- | --- | --- | --- | --- | --- | --- | --- | --- | --- | --- | --- | --- | --- | --- | --- | --- | --- | --- | --- | --- | --- | --- |
| CC#CCn1c(N2CCC[C@@H](N)C2)nc2c1c(=O)n(Cc1nc(C)c3ccccc3n1)c(=O)n2C | 104 | 104 | 99.3 | 89.2 | 108 | 109 | 104 | 97.8 | 103 | 99.7 | 88.5 | 94.9 | 102 | 102 | 85.9 | 96.8 | 94.6 | 96.1 | 93.9 | 91.2 | 87.4 | 94.9 | 104 | 102 | 98.4 | 83.6 | 100 | 109 | 101 | 95.9 | 97.6 | 85.1 | 85.9 |
| CC(C)OC(=O)[C@H](C)N[P@](=O)(OC[C@H]1O[C@@H](N2\C=C/C(=O)NC2=O)[C@](C)(F)[C@@H]1O)OC3=CC=CC=C3 | 104 | 111 | 117 | 110 | 102 | 108 | 94.3 | 41.5 | 8.75 | 6.42 | 9.25 | 113 | 99 | 124 | 109 | 112 | 101 | 110 | 98.1 | 69.3 | 7.18 | 5.81 | 96.2 | 105 | 106 | 103 | 102 | 102 | 101 | 93.1 | 49.8 | 12 | 11.3 |
| COc1ccc(C(=O)c2c(C)n(CCN3CCOCC3)c3cc(I)ccc23)cc1 | 106 | 113 | 113 | 124 | 124 | 121 | 119 | 120 | 39.7 | 13.7 | 9.27 | 115 | 121 | 128 | 122 | 129 | 124 | 133 | 130 | 41.6 | 14.3 | 12.3 | 102 | 110 | 130 | 118 | 129 | 134 | 131 | 126 | 94.2 | 32.8 | 14.9 |
| CC(N[C@H]1CCCC[C@@H]1NC(=O)c1ccc(Cl)cc1)c1cccc2ccccc12 (stereo partly specified) | 107 | 109 | 114 | 110 | 113 | 115 | 111 | 116 | 114 | 39.7 | 28.1 | 117 | 119 | 113 | 118 | 117 | 115 | 119 | 111 | 102 | 30.9 | 35.2 | 105 | 105 | 109 | 104 | 102 | 113 | 108 | 110 | 106 | 30.6 | 28.7 |
| CC(C)c1cc(C(C)C)c(CC(=O)N[S+](=O)([O-])Oc2c(C(C)C)cccc2C(C)C)c(C(C)C)c1 | 103 | 106 | 103 | 106 | 103 | 104 | 104 | 103 | 101 | 97 | 89.7 | 105 | 102 | 104 | 96.8 | 102 | 96.9 | 109 | 96.8 | 102 | 97.6 | 76.9 | 99.5 | 108 | 105 | 105 | 110 | 101 | 98.3 | 90.1 | 99.1 | 89.2 | 87 |
| CN1CC(=O)N2[C@H](c3ccc4c(c3)OCO4)c3[nH]c4ccccc4c3C[C@@H]2C1=O | 100 | 99.2 | 100 | 97.9 | 104 | 96.6 | 101 | 91.6 | 89.9 | 89.6 | 78.8 | 92.4 | 96.8 | 90.4 | 92.6 | 95 | 103 | 90 | 94.1 | 82.7 | 96.9 | 79.6 | 89.8 | 92 | 92.6 | 89.6 | 90.9 | 92.1 | 85.1 | 87 | 83.6 | 81 | 78.5 |
| COc1ccc2c(c1)[C@]13CCCCC1C(C2)N(C)CC3 (stereo partly specified) | 107 | 118 | 114 | 116 | 116 | 122 | 124 | 126 | 113 | 127 | 117 | 111 | 127 | 119 | 124 | 128 | 129 | 134 | 118 | 133 | 128 | 107 | 106 | 112 | 119 | 120 | 121 | 117 | 126 | 122 | 119 | 122 | 20.9 |
